In this assay the test system is eIF4E Ser209 phosphorylation in Hela cells. Description: MNK cell-based assay (AlphaScreen SureFire, eIF4E Ser209 phosphorylation). The following applies: Homo sapiens; eIF4E Ser209 phosphorylation, Hela cells, 2 hours; read-out: IC50 Hela. In short, it runs like this: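 Hela cells (30,000/well) exposed to test compound in serum-free medium for 2 h at 37 °C, then lysed. Phospho-Ser209 eIF4E quantified by AlphaScreen SureFire; IC50 obtained by non-linear regression of signal versus log compound concentration.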
A general note: Alpha assays give light when donor and acceptor beads are brought close together.

Each structure is given as a SMILES string.

A word on the IC50: it is the point on the concentration scale where inhibition reaches its midpoint. As to `N#Cc1ccc(-c2cnc3ccc(-c4ccc(C(=O)N5CCOCC5)cc4)nn23)cc1` [Example 62, 4-(6-(4-(morpholine-4-carbonyl)phenyl)imidazo[1,2-b]pyridazin-3-yl)benzonitrile], the 50% inhibitory concentration (IC50) was less than 1000 nM.
